Measurements as given in US12622901B2, “Compounds for tau protein degradation” (Dana-Farber Cancer Institute, Inc., priority 2017, dated 2026).
“Also recorded” adds a separate entry of the source. Like-named read-outs stand apart in the source and are kept apart here. One block for each compound: values may come before it.

Experiments:
tau protein [1] = target: T1, tau protein (Homo sapiens, UniProt P10636, A469T); experiment: Tau degradation assay (western blot) in human tau-A152T neurons; format: cell-based
T1 construct: cultured human differentiated frontotemporal lobar dementia (FTD) neurons; endogenous in cells; host or cells: human differentiated FTD neurons, tau-A152T (line 19-5-RC6)
Procedure: Example compounds 1-12 were evaluated for their ability to degrade tau protein in cultured human differentiated frontotemporal lobar dementia (FTD) neurons. […] For each condition, 1 well of differentiated neuronal cells (6 well-plate) was washed and collected in PBS, pelleted and lysed in RIPA buffer (Boston Bio-Products) with 2% SDS (Sigma), protease inhibitors (Roche Complete Mini tablets), and phosphatase inhibitors (Sigma), followed by sonication in a water sonicator (Bransonic Ultrasonic Baths, Thomas Scientific) for 5 min, and centrifugation at 20,000 g for 15 min. Supernatants were transferred to new tubes, total protein concentration was quantified with the Pierce BCA Protein Assay Kit (Thermo), and SDS-PAGE gels were loaded with 10 μg total protein per well (pre-boiled samples). Western blots were performed with the Novex NuPAGE SDS-PAGE Gel System (Invitrogen). All samples were resolved in 7% Tris-Acetate gels with Tris-Acetate running buffer (Invitrogen). Blots were probed with antibodies against total tau (TAU5) and phosphosrylated tau (Ser396), along with β-actin as a loading control; followed by corresponding HRP-linked secondary antibodies (Cell Signaling Technology), and SuperSignal West Pico Chemiluminescent Substrate (Thermo) detection. Membranes were exposed to autoradiographic film (LabScientific) and films were scanned using an Epson Perfection V800 Photo Scanner. Protein band intensities (pixel mean intensity) were quantified using Adobe Photoshop CS5 Histogram function. Whereas the vehicle alone (DMSO) had no effect on tau, varying degrading activity was observed amongst the compounds, however with overall similar relative levels of degrading activity between tau-A152T neurons and tau-P301L neurons. Compounds were added at the doses indicated of either 0.1, 1, 5, or 10 μM.
(§1) Four-week differentiated neurons, both non-mutant (8330-8) and tau-A152T (19-5-RC6) were employed. The neurons were treated with T807 for 24 hours (at 10 μg/mL=59.4 μM). One well of differentiated neuronal cells (6 well-plate, treated or untreated) was washed and collected in PBS, pelleted and directly lysed in 200 μL of Sample Buffer (New England Biolabs) supplemented with 3X DTT, boiled for 15 min and 10 μL of each lysate was run by SDS-PAGE in a 4-12% Bis-Tris Gel, with MOPS running buffer. Blots were probed with antibodies to total tau (DA9) and phosphorylated tau (Ser396, PHF1, AT8) along with GAPDH as a loading control.
Example compounds 2-5 were reevaluated for their ability to degrade tau protein in human FTD neurons as well as evaluate their effect on E3 ubiquitin ligases CRBN, VHL, and CHIP (FIG. 4A-E). For each control and treatment, 1 well of differentiated neuronal cells (6 well-plate) was washed and collected in PBS, pelleted and lysed in RIPA buffer (Boston Bio-Products) with 2% SDS (Sigma), protease inhibitors (Roche Complete Mini tablets), and phosphatase inhibitors (Sigma), followed by sonication in a water sonicator (Bransonic Ultrasonic Baths, Thomas Scientific) for 5 min, and centrifugation at 20,000 g for 15 min. Supernatants were transferred to new tubes, total protein concentration was quantified with the Pierce BCA Protein Assay Kit (Thermo), and SDS-PAGE gels were loaded with 10 μg total protein per well (pre-boiled samples). […] Protein band intensities (pixel mean intensity) were quantified using Adobe Photoshop CS5 Histogram function. […]

A152T neurons [2] = experiment: Neuronal viability / rescue of stress vulnerability to β-amyloid (1-42) peptide; conditions: A152T neurons differentiated 8 weeks; compound alone; FIG. 7
tau protein [3] = target: T2, tau protein (Homo sapiens, UniProt P10636, P618L); experiment: Tau degradation assay (western blot) in human tau-P301L neurons; format: cell-based
T2 construct: cultured human differentiated frontotemporal lobar dementia (FTD) neurons; endogenous in cells; host or cells: human differentiated FTD neurons, tau-P301L
Procedure: Example compounds 1-12 were evaluated for their ability to degrade tau protein in cultured human differentiated frontotemporal lobar dementia (FTD) neurons. […] For each condition, 1 well of differentiated neuronal cells (6 well-plate) was washed and collected in PBS, pelleted and lysed in RIPA buffer (Boston Bio-Products) with 2% SDS (Sigma), protease inhibitors (Roche Complete Mini tablets), and phosphatase inhibitors (Sigma), followed by sonication in a water sonicator (Bransonic Ultrasonic Baths, Thomas Scientific) for 5 min, and centrifugation at 20,000 g for 15 min. Supernatants were transferred to new tubes, total protein concentration was quantified with the Pierce BCA Protein Assay Kit (Thermo), and SDS-PAGE gels were loaded with 10 μg total protein per well (pre-boiled samples). Western blots were performed with the Novex NuPAGE SDS-PAGE Gel System (Invitrogen). […] Protein band intensities (pixel mean intensity) were quantified using Adobe Photoshop CS5 Histogram function. […]
Example compounds 2-5 were reevaluated for their ability to degrade tau protein in human FTD neurons as well as evaluate their effect on E3 ubiquitin ligases CRBN, VHL, and CHIP (FIG. 4A-E). […] Supernatants were transferred to new tubes, total protein concentration was quantified with the Pierce BCA Protein Assay Kit (Thermo), and SDS-PAGE gels were loaded with 10 μg total protein per well (pre-boiled samples). […]

tau protein [4] = target: T3, tau protein (Homo sapiens, UniProt P10636); experiment: Tau degradation assay (western blot) in non-mutant control human neurons; format: cell-based
T3 construct: Four-week differentiated neurons, both non-mutant (8330-8) and tau-A152T (19-5-RC6) were employed; endogenous in cells; host or cells: human differentiated non-mutant control neurons (8330-8, 8330-8-RC1, CTR2-L17-RC2)
Procedure: as §1
Example compounds 2-5 were again evaluated in tau degradation assays in non-mutant control, A152T and P301L neurons (6-week differentiated). Non-mutant neurons were employed as a negative control since derivatives of T807 should not recognize non-disease states of tau based upon how the series was identified, using selection for binding to pathological forms of tau in post-mortem brain lysates and tissue slices. […] Supernatants were transferred to new tubes, total protein concentration was quantified with the Pierce BCA Protein Assay Kit (Thermo), and SDS-PAGE gels were loaded with 10 μg total protein per well (pre-boiled samples). […] Protein band intensities (pixel mean intensity) were quantified using Adobe Photoshop CS5 Histogram function. […]

A152T neurons [5] = tested on: A152T neurons

T1 sequence (P10636 1-441 isoform P10636-8 A152T): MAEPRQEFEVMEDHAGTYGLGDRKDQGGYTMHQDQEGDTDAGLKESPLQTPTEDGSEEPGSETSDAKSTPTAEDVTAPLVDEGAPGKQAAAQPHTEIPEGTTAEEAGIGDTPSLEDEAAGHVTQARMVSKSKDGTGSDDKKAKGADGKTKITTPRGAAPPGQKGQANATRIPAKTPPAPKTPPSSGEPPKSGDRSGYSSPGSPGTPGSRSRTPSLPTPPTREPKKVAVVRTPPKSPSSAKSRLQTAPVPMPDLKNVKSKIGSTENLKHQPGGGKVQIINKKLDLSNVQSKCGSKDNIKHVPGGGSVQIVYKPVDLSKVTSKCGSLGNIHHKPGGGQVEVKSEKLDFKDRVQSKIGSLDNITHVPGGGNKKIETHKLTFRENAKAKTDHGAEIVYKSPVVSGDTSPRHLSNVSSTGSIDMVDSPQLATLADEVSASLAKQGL
T3 sequence (P10636 1-441 isoform P10636-8): as the sequence (P10636 1-441 isoform P10636-8 A152T) above, with T152A counted along it
T2 sequence (P10636 1-441 isoform P10636-8 P301L): as the sequence (P10636 1-441 isoform P10636-8 A152T) above, with T152A, P301L counted along it

- dose-dependency of effect on tau (tau protein [1]; 6-week differentiated A152T neurons, treatment for 24 hours, FIG. 6): dose dependent effect on tau
Compound: O=C(CCc1ccc2c(c1)[nH]c1ccncc12)NCCOCCNc1cccc2c1C(=O)N(C1CCC(=O)NC1=O)C2=O (stereo not shown) [Compound 2, N-(2-(2-((2-(2,6-dioxopiperidin-3-yl)-1,3-dioxoisoindolin-4-yl)amino)ethoxy)ethyl)-3-(5H-pyrido[4,3-b]indol-7-yl)propanamide]
- effect on neuronal viability (A152T neurons [2]): no effect on neuronal viability

Compound: Fc1ccc(-c2ccc3c(c2)[nH]c2ccncc23)cn1 [Compound T807]
- effect on total tau and phospho-tau (S396) levels (tau protein [1]; A152T neurons, 6-week differentiated, 1 μM, FIG. 5): no effect
- effect on total tau and phosphorylated tau levels (tau protein [1]; tau-A152T (19-5-RC6) neurons, four-week differentiated, 24 h at 10 μg/mL=59.4 μM, FIG. 3): No significant tau lowering activity; also recorded: no effect on tau levels and did not degrade tau
- effect on total tau and phospho-tau (S396) levels (tau protein [3]; P301L neurons, 6-week differentiated, 1 μM, FIG. 5): no effect
- effect on total tau and phosphorylated tau levels (tau protein [4]; non-mutant (8330-8) neurons, four-week differentiated, 24 h at 10 μg/mL=59.4 μM, FIG. 3): No significant tau lowering activity; also recorded: no effect on tau levels and did not degrade tau
- effect on total tau and phospho-tau (S396) levels (tau protein [4]; non-mutant control neurons, 6-week differentiated, 1 μM, FIG. 5): no effect

Compound: N-(17-(2-((2-(2,6-dioxopiperidin-3-yl)-1,3-dioxoisoindolin-4-yl)amino)-3,6,9,12,15-pentaoxaheptadecyl)-3-(5H-pyrido[4,3-b]indol-7-yl)propanamide [Compound 5]
- effect on neuronal viability (A152T neurons [5]): no effect on neuronal viability

Compound: Nc1cccc2c1CN(C1CCC(=O)NC1=O)C2=O (stereo not shown) [Lenalidomide]
- effect on total tau and hyperphosphorylated tau levels (tau protein [1]; tau-A152T neurons, 5-week differentiated, 24 h treatment, 0.1, 1, 5 or 10 μM (lenalidomide 1 or 10 μM), TAU5, pSer396): no effect on tau levels
- effect on total tau and hyperphosphorylated tau levels (tau protein [3]; tau-P301L neurons, 8-week differentiated, 24 h treatment, 0.1, 1, 5 or 10 μM (lenalidomide 1 or 10 μM), TAU5, pSer396): no effect on tau levels
